Experiment [1] has as its target T1, Voltage-gated N-type calcium channel alpha-1B subunit/Amyloid beta A4 precursor protein-binding family A member 1 (Homo sapiens, UniProt Q00975+Q02410). It counts as protein assay.
Another experiment addresses SUMO-activating enzyme (Homo sapiens, UniProt Q9UBT2). Kind of experiment: blockers of SAE1/SAE2–UBC9 SUMO transfer – biochemical, HTRF, uHTS, primary screen (AID 2006). It counts as protein-complex assay.
For experiment [2], the target named is T1, Voltage-gated N-type calcium channel alpha-1B subunit/Amyloid beta A4 precursor protein-binding family A member 1. It counts as protein assay. The source holds these as a separate data set.
Experiment [3] is described as follows: viability loss in THP-1 monocytes – THP-1 cells, cytotoxicity control for Vif-APOBEC3G degradation inhibitor project, dose response (AID 1117359). It is filed as functional. Particulars: THP-1.
For experiment [4], the target named is Serine/threonine-protein kinase TBK1 (Homo sapiens, UniProt Q9UHD2). Kind of experiment: Navigating the Kinome. Panel member name: TBK1. It is filed as functional.
Experiment [5] concerns the target Tyrosine-protein kinase Lck (Homo sapiens, UniProt P06239). It is filed as functional.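 Further: lck was assayed as one member of a kinase panel.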
Another experiment concerns the target LIM domain kinase 1 (Homo sapiens, UniProt P53667). Kind of experiment: Navigating the Kinome. Panel member name: LIMK1. It is filed as functional.
For experiment [6], the target named is Mitogen-activated protein kinase kinase kinase kinase 2 (Homo sapiens, UniProt Q12851). It counts as functional.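 Further: measured as one member of a kinome-wide kinase panel, with MAP4K2 as the panel entry.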
In experiment [7] the target is Tyrosine-protein kinase ABL1 (Homo sapiens, UniProt P00519). It is filed as functional.
Experiment [8] has as its target Dual specificity tyrosine-phosphorylation-regulated kinase 1B (Homo sapiens, UniProt Q9Y463). Kind of experiment: Navigating the Kinome. Panel member name: DYRK1B. It counts as functional.
Experiment [9] concerns the target BDNF/NT-3 growth factors receptor (Homo sapiens, UniProt Q16620). It counts as functional.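 Further: NTRK2 measured as one member of a broad kinome-wide kinase profiling panel.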
The target in a further experiment is Albumin (Bos taurus, UniProt P02769). Kind of experiment: Counterscreen for inhibitors of T-cell receptor (TCR)-CD3 interaction: Fluorescence-based biochemical high throughput dose response assay to identify inhibitors of T-cell receptor (TCR)-CD3 interaction using a TAMRA-labeled BSA probe. It is filed as functional. On the technique in general: The purpose of a counterscreen is to sort out artefacts and off-target activity.

Experiment [10] addresses T2, 1-phosphatidylinositol 4,5-bisphosphate phosphodiesterase beta-3 (Homo sapiens, UniProt Q01970).
T2 sequence (Q01970 whole entry): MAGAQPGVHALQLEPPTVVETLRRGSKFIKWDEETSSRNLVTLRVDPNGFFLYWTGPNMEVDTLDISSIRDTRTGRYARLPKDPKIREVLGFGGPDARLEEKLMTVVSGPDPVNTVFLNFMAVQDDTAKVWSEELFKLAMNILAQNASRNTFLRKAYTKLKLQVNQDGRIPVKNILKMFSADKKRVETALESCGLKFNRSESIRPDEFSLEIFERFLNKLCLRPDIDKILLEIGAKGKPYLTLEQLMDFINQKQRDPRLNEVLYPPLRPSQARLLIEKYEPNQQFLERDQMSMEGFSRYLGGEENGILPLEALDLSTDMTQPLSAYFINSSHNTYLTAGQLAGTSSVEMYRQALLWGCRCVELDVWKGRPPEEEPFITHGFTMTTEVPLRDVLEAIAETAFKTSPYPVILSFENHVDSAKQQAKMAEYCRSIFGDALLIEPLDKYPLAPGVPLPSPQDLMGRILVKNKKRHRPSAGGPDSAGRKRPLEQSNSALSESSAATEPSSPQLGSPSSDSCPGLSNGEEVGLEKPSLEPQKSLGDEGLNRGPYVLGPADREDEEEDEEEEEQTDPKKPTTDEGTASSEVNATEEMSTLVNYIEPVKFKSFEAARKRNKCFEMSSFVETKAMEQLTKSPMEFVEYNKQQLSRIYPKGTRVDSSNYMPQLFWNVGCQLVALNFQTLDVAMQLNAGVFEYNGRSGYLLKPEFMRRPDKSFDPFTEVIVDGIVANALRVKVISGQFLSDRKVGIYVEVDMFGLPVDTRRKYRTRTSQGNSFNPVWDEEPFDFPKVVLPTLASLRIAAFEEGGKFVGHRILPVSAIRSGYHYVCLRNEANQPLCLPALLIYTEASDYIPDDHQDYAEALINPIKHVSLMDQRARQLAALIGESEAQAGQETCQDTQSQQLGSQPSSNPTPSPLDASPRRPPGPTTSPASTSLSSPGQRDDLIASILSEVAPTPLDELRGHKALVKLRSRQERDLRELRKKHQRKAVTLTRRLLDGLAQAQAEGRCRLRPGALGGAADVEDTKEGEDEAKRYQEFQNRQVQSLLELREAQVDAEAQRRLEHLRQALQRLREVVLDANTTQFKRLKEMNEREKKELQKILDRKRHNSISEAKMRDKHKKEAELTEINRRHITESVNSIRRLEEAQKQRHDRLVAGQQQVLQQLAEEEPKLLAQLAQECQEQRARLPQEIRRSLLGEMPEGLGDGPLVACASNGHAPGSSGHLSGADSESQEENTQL
Kind of experiment: Fluorescence-based biochemical high throughput dose response assay to identify inhibitors of phospholipase C isozymes (PLC-B3).

For experiment [11], the target named is T3, Replicative DNA helicase DnaB (Mycobacterium tuberculosis, UniProt P9WMR3).
T3 sequence (P9WMR3 whole entry): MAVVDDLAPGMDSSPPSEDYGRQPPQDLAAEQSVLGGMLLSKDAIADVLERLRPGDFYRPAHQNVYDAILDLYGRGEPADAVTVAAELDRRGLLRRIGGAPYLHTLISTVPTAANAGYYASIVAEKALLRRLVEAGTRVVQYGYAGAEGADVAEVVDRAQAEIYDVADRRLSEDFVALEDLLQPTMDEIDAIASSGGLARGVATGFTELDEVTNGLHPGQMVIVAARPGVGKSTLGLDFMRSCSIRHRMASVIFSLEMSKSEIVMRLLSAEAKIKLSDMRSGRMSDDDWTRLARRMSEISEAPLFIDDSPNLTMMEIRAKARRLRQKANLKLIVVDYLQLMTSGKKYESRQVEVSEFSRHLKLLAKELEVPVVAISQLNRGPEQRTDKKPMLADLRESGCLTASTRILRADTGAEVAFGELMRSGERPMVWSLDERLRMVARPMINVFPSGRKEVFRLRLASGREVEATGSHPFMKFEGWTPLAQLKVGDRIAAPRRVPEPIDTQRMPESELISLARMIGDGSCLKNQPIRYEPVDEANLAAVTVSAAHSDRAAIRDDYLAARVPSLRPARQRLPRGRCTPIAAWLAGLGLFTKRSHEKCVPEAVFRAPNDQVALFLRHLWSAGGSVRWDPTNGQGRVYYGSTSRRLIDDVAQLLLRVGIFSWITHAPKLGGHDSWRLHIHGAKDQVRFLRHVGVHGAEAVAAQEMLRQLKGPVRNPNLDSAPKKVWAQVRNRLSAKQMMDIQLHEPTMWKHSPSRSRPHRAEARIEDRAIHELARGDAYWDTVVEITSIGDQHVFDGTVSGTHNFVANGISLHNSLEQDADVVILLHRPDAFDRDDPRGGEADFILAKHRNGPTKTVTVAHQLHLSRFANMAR
Kind of experiment: DnaB intein splicing inhibitors, dose response, biochemical, cell-free fluorescence (AID 449749). It is filed as functional.

Calls of active or inactive are those of the source.

T1 sequence (Q00975 whole entry): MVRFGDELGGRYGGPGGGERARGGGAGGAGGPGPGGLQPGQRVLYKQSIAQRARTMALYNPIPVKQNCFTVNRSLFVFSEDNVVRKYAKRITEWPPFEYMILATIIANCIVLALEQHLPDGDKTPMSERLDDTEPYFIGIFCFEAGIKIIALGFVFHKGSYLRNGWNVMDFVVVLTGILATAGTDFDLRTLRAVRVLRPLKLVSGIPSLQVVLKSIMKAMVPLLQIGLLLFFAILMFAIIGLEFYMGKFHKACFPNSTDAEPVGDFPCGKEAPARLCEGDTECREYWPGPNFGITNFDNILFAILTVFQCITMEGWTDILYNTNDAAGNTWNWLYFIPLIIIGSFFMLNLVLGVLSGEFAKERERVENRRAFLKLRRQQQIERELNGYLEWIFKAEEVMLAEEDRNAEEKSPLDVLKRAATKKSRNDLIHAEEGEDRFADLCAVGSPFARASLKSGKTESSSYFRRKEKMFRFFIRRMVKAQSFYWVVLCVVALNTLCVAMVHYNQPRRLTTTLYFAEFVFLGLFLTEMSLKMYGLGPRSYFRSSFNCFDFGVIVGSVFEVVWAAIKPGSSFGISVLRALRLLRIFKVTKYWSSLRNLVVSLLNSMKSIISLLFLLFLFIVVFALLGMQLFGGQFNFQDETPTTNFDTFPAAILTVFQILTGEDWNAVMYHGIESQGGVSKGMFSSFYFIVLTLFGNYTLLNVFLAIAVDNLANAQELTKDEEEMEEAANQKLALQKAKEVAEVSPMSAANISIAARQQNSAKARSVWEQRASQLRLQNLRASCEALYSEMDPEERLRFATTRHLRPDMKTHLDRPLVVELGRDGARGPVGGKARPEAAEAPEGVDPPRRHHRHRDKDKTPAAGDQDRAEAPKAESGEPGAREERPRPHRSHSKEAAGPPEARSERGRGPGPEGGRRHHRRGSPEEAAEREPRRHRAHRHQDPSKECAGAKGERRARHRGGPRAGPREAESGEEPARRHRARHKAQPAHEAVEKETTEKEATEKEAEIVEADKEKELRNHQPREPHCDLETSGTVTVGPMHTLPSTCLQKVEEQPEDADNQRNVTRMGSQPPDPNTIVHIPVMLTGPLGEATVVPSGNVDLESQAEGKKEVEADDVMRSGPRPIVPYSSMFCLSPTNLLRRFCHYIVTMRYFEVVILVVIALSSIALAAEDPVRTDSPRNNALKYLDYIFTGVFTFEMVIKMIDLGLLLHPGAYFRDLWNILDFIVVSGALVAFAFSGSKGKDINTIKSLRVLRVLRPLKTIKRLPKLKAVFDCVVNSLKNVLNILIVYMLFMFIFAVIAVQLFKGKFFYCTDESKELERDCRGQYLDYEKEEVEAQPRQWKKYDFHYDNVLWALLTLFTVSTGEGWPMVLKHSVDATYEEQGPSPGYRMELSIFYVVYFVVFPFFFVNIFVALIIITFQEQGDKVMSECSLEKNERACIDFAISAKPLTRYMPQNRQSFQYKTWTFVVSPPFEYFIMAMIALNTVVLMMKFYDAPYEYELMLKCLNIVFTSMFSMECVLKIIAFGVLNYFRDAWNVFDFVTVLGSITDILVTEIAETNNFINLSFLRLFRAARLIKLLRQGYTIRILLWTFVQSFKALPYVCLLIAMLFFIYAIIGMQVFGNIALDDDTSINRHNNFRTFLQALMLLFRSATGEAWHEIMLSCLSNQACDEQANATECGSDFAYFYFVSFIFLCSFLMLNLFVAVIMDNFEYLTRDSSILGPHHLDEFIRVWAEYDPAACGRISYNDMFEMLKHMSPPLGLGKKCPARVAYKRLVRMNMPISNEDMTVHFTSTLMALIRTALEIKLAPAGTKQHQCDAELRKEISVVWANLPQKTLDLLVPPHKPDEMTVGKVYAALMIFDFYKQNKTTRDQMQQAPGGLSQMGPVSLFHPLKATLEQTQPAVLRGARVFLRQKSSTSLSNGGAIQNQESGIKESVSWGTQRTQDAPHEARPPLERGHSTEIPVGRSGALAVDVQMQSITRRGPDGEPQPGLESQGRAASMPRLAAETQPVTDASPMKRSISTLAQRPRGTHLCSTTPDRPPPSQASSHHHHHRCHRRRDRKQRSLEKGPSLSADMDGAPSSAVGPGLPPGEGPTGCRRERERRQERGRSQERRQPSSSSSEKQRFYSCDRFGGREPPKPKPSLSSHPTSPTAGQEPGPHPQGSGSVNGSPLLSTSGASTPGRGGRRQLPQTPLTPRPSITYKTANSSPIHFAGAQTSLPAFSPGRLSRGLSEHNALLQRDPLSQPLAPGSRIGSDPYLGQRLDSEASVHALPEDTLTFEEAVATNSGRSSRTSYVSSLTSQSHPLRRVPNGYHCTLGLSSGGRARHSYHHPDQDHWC
T1 sequence (Q02410 whole entry): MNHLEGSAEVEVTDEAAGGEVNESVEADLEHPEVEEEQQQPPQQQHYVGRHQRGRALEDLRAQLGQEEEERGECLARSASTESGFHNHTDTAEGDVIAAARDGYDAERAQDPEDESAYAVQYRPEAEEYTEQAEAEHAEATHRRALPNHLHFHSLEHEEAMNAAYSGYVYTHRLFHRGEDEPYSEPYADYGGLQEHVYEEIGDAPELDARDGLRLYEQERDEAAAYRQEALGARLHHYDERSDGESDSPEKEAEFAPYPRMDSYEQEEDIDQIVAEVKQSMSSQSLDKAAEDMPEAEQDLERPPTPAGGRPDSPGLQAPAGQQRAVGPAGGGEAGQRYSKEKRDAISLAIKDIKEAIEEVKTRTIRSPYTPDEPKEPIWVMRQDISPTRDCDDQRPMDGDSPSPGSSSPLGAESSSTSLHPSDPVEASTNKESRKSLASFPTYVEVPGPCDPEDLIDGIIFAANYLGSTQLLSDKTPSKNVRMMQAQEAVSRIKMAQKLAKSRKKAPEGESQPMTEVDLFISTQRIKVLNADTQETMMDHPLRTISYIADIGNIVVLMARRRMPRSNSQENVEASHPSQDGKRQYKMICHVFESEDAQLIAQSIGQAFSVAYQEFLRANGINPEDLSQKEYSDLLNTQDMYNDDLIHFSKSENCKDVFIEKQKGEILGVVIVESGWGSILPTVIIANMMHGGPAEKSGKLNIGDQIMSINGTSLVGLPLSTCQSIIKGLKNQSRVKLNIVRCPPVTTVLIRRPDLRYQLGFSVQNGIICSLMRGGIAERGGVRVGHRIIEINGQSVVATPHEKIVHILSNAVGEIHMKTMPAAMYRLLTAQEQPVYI
Tyrosine-protein kinase Lck, sequence (P06239 whole entry, the tested form may be a part): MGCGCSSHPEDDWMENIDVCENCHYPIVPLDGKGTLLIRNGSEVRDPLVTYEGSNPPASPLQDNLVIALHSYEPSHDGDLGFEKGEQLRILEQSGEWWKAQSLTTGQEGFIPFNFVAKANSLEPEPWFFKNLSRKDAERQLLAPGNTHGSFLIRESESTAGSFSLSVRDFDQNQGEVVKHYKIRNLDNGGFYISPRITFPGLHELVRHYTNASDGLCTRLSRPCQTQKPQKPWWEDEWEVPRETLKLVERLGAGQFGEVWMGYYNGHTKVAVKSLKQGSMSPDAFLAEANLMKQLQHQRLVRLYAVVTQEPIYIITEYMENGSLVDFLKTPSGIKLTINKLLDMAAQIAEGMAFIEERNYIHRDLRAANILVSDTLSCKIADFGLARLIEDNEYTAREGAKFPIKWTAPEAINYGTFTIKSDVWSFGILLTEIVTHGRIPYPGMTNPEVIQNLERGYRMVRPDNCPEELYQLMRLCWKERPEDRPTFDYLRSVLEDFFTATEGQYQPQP
Mitogen-activated protein kinase kinase kinase kinase 2, sequence (Q12851 whole entry): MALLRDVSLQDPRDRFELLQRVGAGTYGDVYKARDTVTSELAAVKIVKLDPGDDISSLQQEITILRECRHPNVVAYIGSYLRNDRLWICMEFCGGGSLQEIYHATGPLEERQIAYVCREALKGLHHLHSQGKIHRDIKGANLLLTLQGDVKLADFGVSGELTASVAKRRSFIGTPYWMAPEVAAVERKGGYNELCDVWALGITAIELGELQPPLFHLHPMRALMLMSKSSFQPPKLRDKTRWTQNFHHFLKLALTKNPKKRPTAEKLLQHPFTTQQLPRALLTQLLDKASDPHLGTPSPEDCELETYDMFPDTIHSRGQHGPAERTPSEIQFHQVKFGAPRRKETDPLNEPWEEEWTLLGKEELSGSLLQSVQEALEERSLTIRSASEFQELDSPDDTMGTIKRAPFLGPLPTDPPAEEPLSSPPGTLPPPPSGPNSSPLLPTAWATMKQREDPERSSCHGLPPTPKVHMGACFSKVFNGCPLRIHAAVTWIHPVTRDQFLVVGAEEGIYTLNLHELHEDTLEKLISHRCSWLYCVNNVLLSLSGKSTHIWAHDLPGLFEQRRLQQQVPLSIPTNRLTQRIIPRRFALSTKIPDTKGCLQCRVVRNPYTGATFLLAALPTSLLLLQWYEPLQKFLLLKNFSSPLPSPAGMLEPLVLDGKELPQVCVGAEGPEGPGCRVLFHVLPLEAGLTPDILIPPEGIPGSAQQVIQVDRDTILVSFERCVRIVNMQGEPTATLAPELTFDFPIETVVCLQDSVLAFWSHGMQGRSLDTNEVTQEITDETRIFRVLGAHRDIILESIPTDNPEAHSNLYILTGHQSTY
Albumin, sequence (P02769 whole entry): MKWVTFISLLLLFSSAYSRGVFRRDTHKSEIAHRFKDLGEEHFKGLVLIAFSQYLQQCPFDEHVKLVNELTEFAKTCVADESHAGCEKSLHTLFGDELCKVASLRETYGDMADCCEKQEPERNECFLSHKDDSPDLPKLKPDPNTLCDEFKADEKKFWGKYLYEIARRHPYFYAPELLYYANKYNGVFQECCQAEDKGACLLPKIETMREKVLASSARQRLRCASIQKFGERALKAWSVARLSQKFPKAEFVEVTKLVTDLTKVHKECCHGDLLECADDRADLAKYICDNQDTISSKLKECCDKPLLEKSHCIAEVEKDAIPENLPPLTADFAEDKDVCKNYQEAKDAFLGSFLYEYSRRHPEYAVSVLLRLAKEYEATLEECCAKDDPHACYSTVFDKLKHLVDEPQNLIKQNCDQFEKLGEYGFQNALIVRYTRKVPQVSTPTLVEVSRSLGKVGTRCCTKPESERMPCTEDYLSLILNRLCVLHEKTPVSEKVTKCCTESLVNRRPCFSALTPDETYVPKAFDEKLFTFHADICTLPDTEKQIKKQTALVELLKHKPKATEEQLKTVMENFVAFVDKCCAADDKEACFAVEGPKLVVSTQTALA

One may read the IC50 as the point on the concentration scale where inhibition reaches its midpoint. A word on the CC50: it is the concentration that lowers cell viability or growth by half. As for `CC(=O)N(C1=C(Cl)C(=O)c2ccccc2C1=O)c1ccc(C(=O)O)cc1`, the IC50 is 3.35 µM (active) in experiment [1], 17.3 µM (active) at SUMO-activating enzyme and 0.225 µM (active) in experiment [2]. For the same compound, the CC50 in [3] is 32.4 µM (active).

Usually Ki stands for the equilibrium dissociation constant of an inhibitor or competing ligand from its target. Consider `Cc1ccc(-c2cc3nc(Br)cnc3[nH]2)cc1`, for which the Ki in experiment [4] is > 3.16 µM (inactive); in experiment [5], > 6.31 µM (inactive); on LIM domain kinase 1, > 3.16 µM (inactive); in experiment [6] it was > 2.51 µM (inactive); in experiment [7] it was 0.794 µM (active); in experiment [8] it was > 2.51 µM (inactive). The Ki in experiment [9] was > 3.98 µM (inactive).

As to `O=C1C=C(O)c2c(O)cc(O)c(O)c2C1=O`, the IC50 at Albumin was > 94.1 µM (inactive); in experiment [10] it was > 122 µM (inactive).

For orientation: AC50 means the concentration giving half of the maximal activity seen. For `CC1(C)C=C2C(=NN(c3ccccc3)C(N)=C2C#N)CO1`, the AC50 in experiment [11] is > 380 µM (inconclusive).
